Measurements from patent publication US11214803B2, “Modulators of YAP1 expression” (Ionis Pharmaceuticals, Inc., priority 2019, dated 2022).
Strand notation (5' to 3'): a small letter for the sugar, then the base; units joined by * are phosphorothioate-linked, units joined directly phosphodiester-linked; [ ] holds rarer units or linkages, { } end groups; capitals alone tell only the bases. e = 2'-O-(2-methoxyethyl) (MOE); k = constrained ethyl (cEt); [5mC] = 5-methylcytosine; d = 2'-deoxy (DNA); m = 2'-O-methyl

Test system: Yap1 mRNA
Test: Antisense inhibition of human Yap1 in SNU-449 cells by modified oligonucleotides, single dose (Example 5, RTS36584)
Assay type: cell-based
Method in brief: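 Values are Yap1 mRNA as percent of untreated control cells, measured by quantitative real-time RT-PCR using RTS36584 and normalised to total RNA by RIBOGREEN. Cells were SNU-449, dosed by free uptake at 2,000 nM for approximately 48 hours.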

[1] = Table 50, Yap1 mRNA remaining as percent of untreated control (UT), SNU-449 cells, single dose
[2] = Table 49, Yap1 mRNA level relative to untreated control, modified oligonucleotides targeting SEQ ID NO.: 1 and 2
[3] = Table 40 (separate experiment), SNU-449 cells, 10,000 cells per well, free uptake, 2,000 nM oligonucleotide, approx. 48 hours, RTS36584, normalized to RIBOGREEN, Yap1 mRNA relative to untreated control
[4] = Table 39, SNU-449 cells, 10,000 cells per well, free uptake, 2,000 nM oligonucleotide, approx. 48 hours, RTS36584, normalized to RIBOGREEN, Yap1 mRNA relative to untreated control
[5] = Table 48, Yap1 mRNA level relative to untreated control, modified oligonucleotides targeting SEQ ID NO.: 1 and 2
[6] = Table 52, Yap1 mRNA, modified oligonucleotides targeting SEQ ID NO: 1 and 2
[7] = Table 46, Yap1 mRNA as percent of untreated control, SNU-449 cells, single dose
[8] = Table 45, Yap1 mRNA as percent of untreated control, SNU-449 cells, single dose
[9] = Table 43 experiment, SNU-449 cells, 10,000 cells per well, free uptake, 2,000 nM, approximately 48 hours, RTS36584, Yap1 mRNA normalized to RIBOGREEN, relative to untreated control cells
[10] = Table 44 experiment, SNU-449 cells, 10,000 cells per well, free uptake, 2,000 nM, approximately 48 hours, RTS36584, Yap1 mRNA normalized to RIBOGREEN, relative to untreated control cells
[11] = Table 41, SNU-449 cells, 10,000 cells per well, free uptake, 2,000 nM modified oligonucleotide, approximately 48 hours, RTS36584, normalized to RIBOGREEN, Yap1 mRNA relative to untreated control cells
[12] = Yap1 mRNA, percent of untreated control, modified oligonucleotides targeting SEQ ID NO: 1 and 2, Table 47
[13] = Table 51, Yap1 mRNA remaining as percent of untreated control (UT), SNU-449 cells, single dose

1198599 (antisense k[5mC]*kA*kA*d[5mC]*dT*d[5mC]*dT*dT*dA*dT*dA*dT*kG*kG*kT*eT) [Compound 1198599]
YAP1 (% UT) [1]: 90 % UT

1198363 (kA*kA*kG*dT*dA*dA*dG*dG*dT*dT*dT*d[5mC]*k[5mC]*e[5mC]*kA*eG; antisense) [Compound 1198363]
YAP1 (% UT) [2]: 55 % UT

1198597 (antisense kA*k[5mC]*kT*d[5mC]*dT*dT*dA*dT*dA*dT*dG*dG*kT*kT*kT*eT) [Compound 1198597]
YAP1 (% UT) [1]: 27 % UT

1198442 (kT*dA*dA*dA*dG*dT*dG*dT*dA*dT*dG*kT*e[5mC]*kA*eG*kA; antisense) [Compound 1198442]
YAP1 (% UTC) [3]: 44 % UTC

1198372 (kA*dA*dT*dT*dG*dT*d[5mC]*dT*d[5mC]*dA*dT*kG*e[5mC]*k[5mC]*eT*kT; antisense) [Compound 1198372]
YAP1 (% UTC) [4]: 21 % UTC

1198286 (kA*kA*kT*dT*dG*dT*d[5mC]*dT*d[5mC]*dA*dT*dG*k[5mC]*e[5mC]*kT*eT; antisense) [Compound 1198286]
YAP1 (% UT) [5]: 17 % UT

1198212 (kT*kA*dT*dT*dA*dG*dA*dG*dT*dA*dT*eG*eT*eG*kG*k[5mC]; antisense) [Compound 1198212]
YAP1 (% UTC) (Table 42 (separate experiment), SNU-449 cells, 10,000 cells per well, free uptake, 2,000 nM modified oligonucleotide, approximately 48 hours, RTS36584, normalized to RIBOGREEN, Yap1 mRNA relative to untreated control cells): 17 % UTC

1200846 (kG*kA*k[5mC]*dA*dA*mC*dT*d[5mC]*dT*dT*dA*dT*dA*kT*kG*kG; antisense) [Compound 1200846]
YAP1 (% UT) [6]: 38 % UT

1095427 (antisense k[5mC]*kA*d[5mC]*dT*dG*dA*dG*dG*dT*dA*dT*kA*eA*k[5mC]*eT*kG) [Compound 1095427]
YAP1 (% UT) [7]: 45 % UT

1198839 (k[5mC]*kT*dT*dT*dG*dG*dA*dA*dG*dA*dT*k[5mC]*eT*kG*eA*kA; antisense) [Compound 1198839]
YAP1 (% UT) [7]: 36 % UT

1200810 (kA*kA*k[5mC]*dA*d[5mC]*mU*dG*dA*dG*dG*dT*dA*dT*kA*kA*k[5mC]; antisense) [Compound 1200810]
YAP1 (% UT) [6]: 94 % UT

1197230 (antisense kT*kG*kG*dA*mA*dA*dT*dT*dG*dT*d[5mC]*dT*d[5mC]*kA*kT*kG) [Compound 1197230]
YAP1 (% UT) [1]: 29 % UT

1198897 (kA*kT*dG*dG*dA*dA*dA*dT*dT*dG*dT*k[5mC]*dT*k[5mC]*dA*kT; antisense) [Compound 1198897]
YAP1 (% UTC) [8]: 61 % UTC

1198563 (antisense kG*kA*kG*dG*dT*dA*dT*dA*dA*d[5mC]*dT*dG*kG*kG*k[5mC]*eA) [Compound 1198563]
YAP1 (% UT) [1]: 53 % UT

1198248 (kA*kT*dA*dT*dG*dG*dT*dT*dT*dT*dG*eT*eG*eT*kG*kT; antisense) [Compound 1198248]
YAP1 (% UTC) [9]: 64 % UTC

1095453 (antisense kT*kG*kA*dG*dG*dT*dA*dT*dA*dA*d[5mC]*dT*kG*kG*kG*e[5mC]) [Compound 1095453]
YAP1 (% UT) [1]: 32 % UT

1198416 (kA*dG*dA*dT*dT*dT*dA*dG*dG*dA*dT*kG*e[5mC]*kA*eT*kG; antisense) [Compound 1198416]
YAP1 (% UTC) [4]: 29 % UTC

1198932 (kT*kT*dA*dG*dG*dA*dT*dG*d[5mC]*dA*dT*kG*dG*kT*dT*kT; antisense) [Compound 1198932]
YAP1 (% UTC) [8]: 35 % UTC

1198444 (kT*dT*dT*dA*dA*dA*dG*dT*dG*dT*dA*kT*eG*kT*e[5mC]*kA; antisense) [Compound 1198444]
YAP1 (% UTC) [3]: 70 % UTC

1198516 (kA*kT*dA*dT*dT*dG*d[5mC]*dA*dA*dT*d[5mC]*eT*kG*eT*k[5mC]*eT; antisense) [Compound 1198516]
YAP1 (% UTC) [10]: 50 % UTC

1197216 (antisense kA*kA*kA*dG*dT*dG*dT*dA*dT*dG*dT*d[5mC]*dA*kG*kA*kA) [Compound 1197216]
YAP1 (% UT) [5]: 12 % UT

1198886 (kA*k[5mC]*dT*dA*dA*dG*dT*dA*dA*dG*dG*kT*eT*kT*e[5mC]*k[5mC]; antisense) [Compound 1198886]
YAP1 (% UT) [7]: 45 % UT

1198639 (kT*kA*dG*dA*dG*dT*dA*dT*dG*dT*dG*dG*k[5mC]*eA*kA*eT; antisense) [Compound 1198639]
YAP1 (% UTC) [11]: 32 % UTC

1198505 (kA*kT*dT*d[5mC]*dA*dG*dA*dT*dT*dT*dA*eG*kG*eA*kT*eG; antisense) [Compound 1198505]
YAP1 (% UTC) [10]: 73 % UTC

1197195 (antisense kT*kT*kT*dA*dG*dG*dA*dT*dG*d[5mC]*dA*dT*dG*kG*kT*kT) [Compound 1197195]
YAP1 (% UT) [12]: 38 % UT

1198294 (kA*kG*kA*dG*dT*dA*dT*dG*dT*dG*dG*d[5mC]*kA*eA*kT*eA; antisense) [Compound 1198294]
YAP1 (% UT) [5]: 13 % UT

1198969 (kA*kA*dG*dT*dA*dA*dG*dG*dT*dT*dT*k[5mC]*d[5mC]*k[5mC]*dA*kG; antisense) [Compound 1198969]
YAP1 (% UTC) [8]: 31 % UTC

1198714 (kT*eG*kT*d[5mC]*dT*d[5mC]*dA*dT*dG*d[5mC]*d[5mC]*dT*eT*eA*kT*kA; antisense) [Compound 1198714]
YAP1 (% UTC) [3]: 20 % UTC

1198935 (kG*kA*dT*dT*dT*dA*dG*dG*dA*dT*dG*k[5mC]*dA*kT*dG*kG; antisense) [Compound 1198935]
YAP1 (% UTC) [8]: 18 % UTC

1197268 (kA*kA*kG*dT*mG*dT*dA*dT*dG*dT*d[5mC]*dA*dG*kA*kA*kG) [Compound 1197268]
YAP1 (% UT) [13]: 25 % UT

1197221 (antisense kA*kG*kT*dA*dA*dG*dG*dT*dT*dT*d[5mC]*d[5mC]*d[5mC]*kA*kG*kA) [Compound 1197221]
YAP1 (% UT) [12]: 42 % UT

1197231 (antisense kA*kT*kG*dG*mA*dA*dA*dT*dT*dG*dT*d[5mC]*dT*k[5mC]*kA*kT) [Compound 1197231]
YAP1 (% UT) [1]: 50 % UT

1198422 (k[5mC]*dT*dT*dA*dT*dA*dT*dG*dG*dT*dT*kT*eT*kG*eT*kG; antisense) [Compound 1198422]
YAP1 (% UTC) [4]: 18 % UTC

1198845 (kA*kG*dG*dA*dT*dG*d[5mC]*dA*dT*dG*dG*kT*eT*kT*eT*kT; antisense) [Compound 1198845]
YAP1 (% UT) [7]: 43 % UT

1197308 (kA*kA*kT*dA*mU*dT*dG*d[5mC]*dA*dA*dT*d[5mC]*dT*kG*kT*k[5mC]; antisense) [Compound 1197308]
YAP1 (% UT) [13]: 49 % UT

1198449 (kA*dA*dG*dT*dA*dA*dG*dG*dT*dT*dT*k[5mC]*e[5mC]*k[5mC]*eA*kG; antisense) [Compound 1198449]
YAP1 (% UTC) [4]: 37 % UTC

1198912 (kA*kA*d[5mC]*dA*d[5mC]*dT*dG*dA*dG*dG*dT*kA*dT*kA*dA*k[5mC]; antisense) [Compound 1198912]
YAP1 (% UTC) [8]: 78 % UTC

1197248 (antisense kT*kT*kA*dA*mG*d[5mC]*dA*d[5mC]*dT*dT*dT*dT*dA*k[5mC]*kA*kT) [Compound 1197248]
YAP1 (% UT) [13]: 75 % UT

1198275 (kT*kA*dA*dG*dG*dT*dT*dT*d[5mC]*d[5mC]*d[5mC]*eA*eG*eA*kT*kT; antisense) [Compound 1198275]
YAP1 (% UTC) [9]: 52 % UTC

1198688 (antisense kA*kT*dA*dT*dT*dG*d[5mC]*dA*dA*dT*d[5mC]*dT*kG*eT*k[5mC]*eT) [Compound 1198688]
YAP1 (% UTC) [11]: 48 % UTC

1198577 (antisense k[5mC]*kT*kT*dT*dG*dG*dA*dA*dG*dA*dT*d[5mC]*kT*kG*kA*eA) [Compound 1198577]
YAP1 (% UT) [2]: 40 % UT

1198526 (kA*kA*dG*dT*dG*dT*dA*dT*dG*dT*d[5mC]*eA*kG*eA*kA*eG; antisense) [Compound 1198526]
YAP1 (% UTC) [10]: 2 % UTC

1200802 (TATAACTGGGCAAATT; cEt gapmer, phosphorothioate, 5-methylcytosine, chemistry not fully specified) [Compound 1200802]
YAP1 (% UT) [6]: 89 % UT

1197179 (antisense kT*kG*kG*dA*dA*dA*dT*dT*dG*dT*d[5mC]*dT*d[5mC]*kA*kT*kG) [Compound 1197179]
YAP1 (% UT) [12]: 16 % UT

1198559 (antisense kT*k[5mC]*kT*dA*dT*dA*dT*dT*dA*dG*dA*dG*kT*kA*kT*eG) [Compound 1198559]
YAP1 (% UT) [2]: 55 % UT

1198641 (kA*kT*dT*dA*dG*dA*dG*dT*dA*dT*dG*dT*kG*eG*k[5mC]*eA; antisense) [Compound 1198641]
YAP1 (% UTC) [11]: 15 % UTC

1197259 (kA*kT*kA*dT*mG*dG*dT*dT*dT*dT*dG*dT*dG*kT*kG*kT) [Compound 1197259]
YAP1 (% UT) [13]: 59 % UT

1198273 (k[5mC]*kT*dT*dT*dA*dA*dA*dG*dT*dG*dT*eA*eT*eG*kT*k[5mC]; antisense) [Compound 1198273]
YAP1 (% UTC) [9]: 52 % UTC
